{"source": "patent US20230025976A1", "about": "“PRMT5 Inhibitor for Use In A Method of Treating Psoriasis and Other Autoimmune Conditions” (Pfizer Inc., priority 2020, published 2023)", "test_system": "psoriasis patient", "assay": "Treatment of a psoriasis patient (case report, Example 1)", "type": "in vivo, human", "settings": "for Psoriasis symptoms, skin, front of torso / Psoriasis symptoms, skin, back of torso: psoriasis patient", "procedure": "They had chronic psoriatic lesions on the front and back sides of their torso. The lesions covered 75% of their body, and the patient had difficulty controlling these symptoms despite having used several different medications in the past. The psoriasis symptoms worsened after chemotherapy. The patient was treated with 1 mg of (1S,2S,3S,5R)-3-((6-(difluoromethyl)-5-fluoro-1,2,3,4-tetrahydroisoquinolin-8-yl) oxy)-5-(4-methyl-7H-pyrrolo[2,3-d]pyrimidin-7-yl)cyclopentane-1,2-diol orally twice a day, for four months. During the treatment period the patient was questioned about other medical conditions, if any, they were then experiencing. […] The patient discontinued treatment after four months, for reasons unrelated to their psoriasis. […] Photos taken after two and six weeks of treatment document the clearing of psoriasis symptoms. FIGS. 1 and 2 depict said clearing of psoriasis symptoms.", "data": [{"smiles": "Cc1ncnc2c1ccn2[C@@H]1C[C@H](Oc2cc(C(F)F)c(F)c3c2CNCC3)[C@@H](O)[C@H]1O", "note": "[(1S,2S,3S,5R)-3-((6-(difluoromethyl)-5-fluoro-1,2,3,4-tetrahydroisoquinolin-8-yl)oxy)-5-(4-methyl-7H-pyrrolo [2,3-d]pyrimidin-7-yl)cyclopentane-1,2-diol]", "values": [{"measurement": "Psoriatic skin lesions after cessation of treatment", "setting": "1 mg orally twice a day for four months, one month after cessation of treatment", "result": "remained in remission"}, {"measurement": "Psoriatic skin lesions", "setting": "person, severe psoriasis, 1 mg orally twice a day, following six weeks treatment", "result": "significant clearing"}, {"measurement": "Psoriatic skin lesions and related itching, patient-reported", "setting": "person, severe psoriasis, 1 mg orally twice a day, within one week of initiating treatment", "result": "improvement in their psoriatic skin lesions and a lessening of related itching"}, {"measurement": "Psoriasis symptoms, skin, front of torso", "setting": "1 mg twice daily for six weeks, FIG. 1B", "result": "mild"}, {"measurement": "Psoriasis symptoms, skin, back of torso", "setting": "1 mg twice daily for six weeks, FIG. 2B", "result": "mild"}, {"measurement": "Psoriasis symptoms, skin, front of torso", "setting": "1 mg twice daily for two weeks, FIG. 1A", "result": "moderate"}, {"measurement": "Psoriasis symptoms, skin, back of torso", "setting": "1 mg twice daily for two weeks, FIG. 2A", "result": "moderate"}]}]}
